Reference: ChEMBL document CHEMBL1909046, “DrugMatrix in vitro pharmacology data”

Tests used:
[1] = biological target: T1, Muscarinic acetylcholine receptor M4 (Homo sapiens, UniProt P08173); format: cell membranes, CHO-K1, Membrane
T1 sequence (P08173 whole entry): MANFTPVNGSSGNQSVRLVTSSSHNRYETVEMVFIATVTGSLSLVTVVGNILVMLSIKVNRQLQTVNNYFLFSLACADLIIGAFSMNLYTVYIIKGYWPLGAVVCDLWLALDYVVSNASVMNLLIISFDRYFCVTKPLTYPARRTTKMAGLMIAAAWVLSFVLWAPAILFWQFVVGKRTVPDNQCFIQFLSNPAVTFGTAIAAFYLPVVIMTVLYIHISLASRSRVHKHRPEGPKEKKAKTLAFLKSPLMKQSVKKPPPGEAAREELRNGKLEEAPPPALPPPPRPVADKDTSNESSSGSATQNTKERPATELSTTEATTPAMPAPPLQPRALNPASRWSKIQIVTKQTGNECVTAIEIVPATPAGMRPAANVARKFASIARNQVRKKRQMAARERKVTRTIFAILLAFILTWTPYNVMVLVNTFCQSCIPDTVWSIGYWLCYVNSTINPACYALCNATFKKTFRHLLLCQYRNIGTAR

Cytochrome P450 1A2 = biological target: T2, Cytochrome P450 1A2 (Homo sapiens, UniProt P05177)
T2 sequence (P05177 whole entry): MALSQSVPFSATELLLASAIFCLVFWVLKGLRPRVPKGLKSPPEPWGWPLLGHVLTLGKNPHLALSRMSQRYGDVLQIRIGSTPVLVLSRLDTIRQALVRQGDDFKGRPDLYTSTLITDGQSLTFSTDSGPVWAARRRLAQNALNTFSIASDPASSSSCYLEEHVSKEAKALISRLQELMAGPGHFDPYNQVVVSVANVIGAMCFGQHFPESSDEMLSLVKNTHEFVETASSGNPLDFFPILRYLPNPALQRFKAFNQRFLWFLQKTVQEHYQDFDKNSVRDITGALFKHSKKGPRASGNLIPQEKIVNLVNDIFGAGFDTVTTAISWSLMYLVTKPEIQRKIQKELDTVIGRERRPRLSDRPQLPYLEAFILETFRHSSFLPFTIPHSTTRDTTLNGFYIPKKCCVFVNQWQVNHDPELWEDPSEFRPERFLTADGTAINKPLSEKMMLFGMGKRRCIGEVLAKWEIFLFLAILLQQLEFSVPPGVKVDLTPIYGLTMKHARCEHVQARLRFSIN

Cytochrome P450 2D6 = Cytochrome P450 2D6 (Homo sapiens, UniProt P10635)
Androgen receptor [2] = biological target: T3, Androgen receptor (Rattus norvegicus, UniProt P15207)
T3 sequence (P15207 whole entry): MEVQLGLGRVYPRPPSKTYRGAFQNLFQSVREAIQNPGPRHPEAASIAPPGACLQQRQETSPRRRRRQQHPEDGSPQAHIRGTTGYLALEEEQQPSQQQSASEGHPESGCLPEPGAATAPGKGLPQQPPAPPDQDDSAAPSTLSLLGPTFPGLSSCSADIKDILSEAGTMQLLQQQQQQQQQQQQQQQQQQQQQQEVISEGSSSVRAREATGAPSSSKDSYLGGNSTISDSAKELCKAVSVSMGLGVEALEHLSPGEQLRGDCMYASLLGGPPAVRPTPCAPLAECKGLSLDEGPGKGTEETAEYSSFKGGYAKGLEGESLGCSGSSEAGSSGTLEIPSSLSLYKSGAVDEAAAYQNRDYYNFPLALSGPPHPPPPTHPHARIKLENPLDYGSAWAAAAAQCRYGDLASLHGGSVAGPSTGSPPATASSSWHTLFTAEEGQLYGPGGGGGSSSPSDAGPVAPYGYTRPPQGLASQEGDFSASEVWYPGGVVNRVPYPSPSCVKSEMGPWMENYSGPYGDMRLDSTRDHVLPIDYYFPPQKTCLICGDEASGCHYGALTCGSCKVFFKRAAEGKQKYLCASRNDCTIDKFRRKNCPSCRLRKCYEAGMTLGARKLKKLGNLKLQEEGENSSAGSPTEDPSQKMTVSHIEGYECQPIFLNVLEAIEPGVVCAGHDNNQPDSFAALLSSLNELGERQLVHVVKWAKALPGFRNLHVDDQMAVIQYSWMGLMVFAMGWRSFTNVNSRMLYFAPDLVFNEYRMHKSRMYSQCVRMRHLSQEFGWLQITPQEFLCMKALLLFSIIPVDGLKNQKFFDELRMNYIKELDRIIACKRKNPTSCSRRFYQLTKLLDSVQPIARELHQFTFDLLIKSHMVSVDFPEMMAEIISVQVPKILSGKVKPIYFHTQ

Cytochrome P450 2C19 = Cytochrome P450 2C19 (Homo sapiens, UniProt P33261)
Cytochrome P450 2C9 = Cytochrome P450 2C9 (Homo sapiens, UniProt P11712)
Cytochrome P450 3A4 = Cytochrome P450 3A4 (Homo sapiens, UniProt P08684)
Androgen receptor [3] = biological target: T3, Androgen receptor; remark: listed apart in the source
Glucocorticoid receptor = biological target: T4, Glucocorticoid receptor (Homo sapiens, UniProt P04150); experiment: biochemical
T4 sequence (P04150 whole entry): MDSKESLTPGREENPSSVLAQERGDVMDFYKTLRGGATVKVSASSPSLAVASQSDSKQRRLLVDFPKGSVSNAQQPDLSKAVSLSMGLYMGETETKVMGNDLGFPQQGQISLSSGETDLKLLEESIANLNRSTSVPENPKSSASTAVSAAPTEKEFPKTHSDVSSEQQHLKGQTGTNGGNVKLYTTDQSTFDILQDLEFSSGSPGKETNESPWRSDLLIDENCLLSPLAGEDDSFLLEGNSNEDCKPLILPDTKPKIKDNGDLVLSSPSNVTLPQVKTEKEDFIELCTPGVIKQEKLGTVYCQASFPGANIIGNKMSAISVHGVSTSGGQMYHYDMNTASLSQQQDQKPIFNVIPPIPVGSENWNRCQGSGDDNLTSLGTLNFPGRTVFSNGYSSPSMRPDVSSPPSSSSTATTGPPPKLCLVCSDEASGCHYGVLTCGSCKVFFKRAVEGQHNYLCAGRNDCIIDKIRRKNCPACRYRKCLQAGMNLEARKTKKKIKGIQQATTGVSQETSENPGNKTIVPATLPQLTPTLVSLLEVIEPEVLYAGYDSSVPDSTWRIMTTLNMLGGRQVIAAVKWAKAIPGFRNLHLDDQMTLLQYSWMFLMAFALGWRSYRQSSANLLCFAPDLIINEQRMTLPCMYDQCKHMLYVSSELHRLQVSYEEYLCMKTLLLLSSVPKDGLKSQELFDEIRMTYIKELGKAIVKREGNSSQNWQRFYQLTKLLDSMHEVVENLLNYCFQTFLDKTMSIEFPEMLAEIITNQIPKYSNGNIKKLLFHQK
Note: in other assays of this panel Not Active means under 50% inhibition at 10 µM.

Chain of Cytochrome P450 2C9 (P11712 whole entry): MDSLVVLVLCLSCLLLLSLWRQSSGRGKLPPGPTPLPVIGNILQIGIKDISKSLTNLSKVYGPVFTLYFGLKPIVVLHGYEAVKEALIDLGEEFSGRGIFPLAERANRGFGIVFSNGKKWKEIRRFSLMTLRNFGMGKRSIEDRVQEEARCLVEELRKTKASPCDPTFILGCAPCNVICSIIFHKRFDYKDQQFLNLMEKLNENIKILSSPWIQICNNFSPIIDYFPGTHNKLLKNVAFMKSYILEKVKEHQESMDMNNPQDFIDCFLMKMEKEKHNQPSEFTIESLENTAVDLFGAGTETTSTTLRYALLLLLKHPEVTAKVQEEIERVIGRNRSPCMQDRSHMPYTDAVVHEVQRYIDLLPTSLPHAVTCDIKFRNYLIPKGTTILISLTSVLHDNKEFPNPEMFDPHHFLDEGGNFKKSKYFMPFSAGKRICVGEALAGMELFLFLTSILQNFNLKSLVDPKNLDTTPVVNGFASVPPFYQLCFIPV
Chain of Cytochrome P450 2D6 (P10635 whole entry): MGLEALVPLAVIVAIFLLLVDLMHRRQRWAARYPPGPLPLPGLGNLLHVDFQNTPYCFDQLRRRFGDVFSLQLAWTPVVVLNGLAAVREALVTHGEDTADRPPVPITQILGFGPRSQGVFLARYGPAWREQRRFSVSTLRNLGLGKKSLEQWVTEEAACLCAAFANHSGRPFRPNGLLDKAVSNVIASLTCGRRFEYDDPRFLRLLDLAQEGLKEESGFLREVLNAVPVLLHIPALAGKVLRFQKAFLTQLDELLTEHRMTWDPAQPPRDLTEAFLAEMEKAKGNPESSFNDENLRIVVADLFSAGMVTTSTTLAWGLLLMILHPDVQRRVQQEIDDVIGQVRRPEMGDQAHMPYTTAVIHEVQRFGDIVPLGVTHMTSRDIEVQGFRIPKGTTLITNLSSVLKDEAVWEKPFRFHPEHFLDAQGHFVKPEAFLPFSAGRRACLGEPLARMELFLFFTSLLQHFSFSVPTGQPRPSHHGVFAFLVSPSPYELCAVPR
Chain of Cytochrome P450 2C19 (P33261 whole entry): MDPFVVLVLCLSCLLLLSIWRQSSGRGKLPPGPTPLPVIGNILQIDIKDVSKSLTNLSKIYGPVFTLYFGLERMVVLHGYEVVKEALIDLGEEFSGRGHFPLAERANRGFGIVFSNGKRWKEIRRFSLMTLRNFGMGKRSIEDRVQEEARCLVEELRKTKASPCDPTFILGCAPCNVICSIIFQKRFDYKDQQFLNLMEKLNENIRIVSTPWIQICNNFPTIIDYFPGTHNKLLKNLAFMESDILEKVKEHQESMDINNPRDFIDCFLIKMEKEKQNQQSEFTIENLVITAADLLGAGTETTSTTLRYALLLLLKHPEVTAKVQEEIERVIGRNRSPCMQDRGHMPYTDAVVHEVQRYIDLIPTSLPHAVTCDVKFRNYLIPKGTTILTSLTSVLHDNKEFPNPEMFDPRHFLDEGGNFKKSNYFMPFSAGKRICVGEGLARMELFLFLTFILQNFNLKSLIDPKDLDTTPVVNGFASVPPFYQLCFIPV
Chain of Cytochrome P450 3A4 (P08684 whole entry): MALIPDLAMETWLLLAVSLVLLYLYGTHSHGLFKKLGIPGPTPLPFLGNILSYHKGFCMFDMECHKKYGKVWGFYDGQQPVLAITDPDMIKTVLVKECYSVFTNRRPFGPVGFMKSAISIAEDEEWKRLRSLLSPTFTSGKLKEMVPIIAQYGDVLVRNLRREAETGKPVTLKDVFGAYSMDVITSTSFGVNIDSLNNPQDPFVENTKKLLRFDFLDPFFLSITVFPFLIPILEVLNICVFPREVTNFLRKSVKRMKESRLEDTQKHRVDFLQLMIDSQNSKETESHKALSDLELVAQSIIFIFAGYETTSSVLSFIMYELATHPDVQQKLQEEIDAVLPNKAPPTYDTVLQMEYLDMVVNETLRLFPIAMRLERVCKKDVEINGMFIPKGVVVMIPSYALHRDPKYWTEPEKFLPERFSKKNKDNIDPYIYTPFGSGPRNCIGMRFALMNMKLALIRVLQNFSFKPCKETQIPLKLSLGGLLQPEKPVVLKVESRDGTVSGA

Molecule	IC50 ([1]; cho-k1)	IC50 (Cytochrome P450 2D6)	IC50 (Androgen receptor [2])	also measured
Cc1ccc2cc3c(ccc4ccccc43)c3c2c1CC3 [3-METHYLCHOLANTHRENE]	Not Active			IC50 (Cytochrome P450 1A2): 0.3 µM
CN(C)C(=O)Oc1cc(OC(=O)N(C)C)cc(C(O)CNC(C)(C)C)c1 (stereo not given) [BAMBUTEROL]	Not Active	2 µM	Not Active	
c1ccc2c(c1)c1cccc3ccc4cccc2c4c31 [BENZO[E]PYRENE]	Not Active		Not Active	IC50 (Cytochrome P450 1A2): 0.1 µM
CC(NC(C)(C)C)C(=O)c1cccc(Cl)c1 (stereo not given) [BUPROPION]	Not Active			IC50 (Cytochrome P450 2C19): 2 µM
CN(Cc1ccc(C(C)(C)C)cc1)Cc1cccc2ccccc12 [BUTENAFINE]	Not Active	0.3 µM		
Cc1ccc(-c2cc(C(F)(F)F)nn2-c2ccc(S(N)(=O)=O)cc2)cc1 [CELECOXIB]	Not Active	1 µM	Not Active	
Cc1cc(C(C#N)c2ccc(Cl)cc2)c(Cl)cc1NC(=O)c1cc(I)cc(I)c1O (stereo not given) [CLOSANTEL]	Not Active			IC50 (Cytochrome P450 2C9): 2 µM
CC(C)[C@@]1(NC(=O)[C@@H]2C[C@@H]3c4cccc5[nH]cc(c45)C[C@H]3N(C)C2)O[C@@]2(O)[C@@H]3CCCN3C(=O)[C@H](Cc3ccccc3)N2C1=O.CS(=O)(=O)O [DIHYDROERGOCRISTINE MESYLATE]	Not Active			IC50 (Cytochrome P450 2C19): 3 µM; IC50 (Cytochrome P450 2C9): 3 µM
CC(C)[C@H]1C(=O)N2CCC[C@H]2[C@]2(O)O[C@](NC(=O)[C@@H]3C=C4c5cccc6[nH]cc(c56)C[C@H]4N(C)C3)(C(C)C)C(=O)N12 [ERGOCORNINE]	Not Active		Not Active	IC50 (Cytochrome P450 3A4): 0.5 µM
C[C@]12CC[C@@H]3c4ccc(O)cc4CC[C@H]3[C@@H]1CCC2=O [ESTRONE]	Not Active			IC50 (Androgen receptor [3]): 11.6 µM; Ki (Androgen receptor [3]): 7.74 µM
CCCCN1CCCC[C@H]1C(=O)Nc1c(C)cccc1C [LEVOBUPIVACAINE]	Not Active	0.196 µM	Not Active	
CCCCc1nc(Cl)c(CO)n1Cc1ccc(-c2ccccc2-c2nnn[nH]2)cc1 [LOSARTAN]	Not Active			IC50 (Cytochrome P450 2C9): 2.88 µM
C[C@]12CCC(=O)C=C1CC[C@@H]1[C@@H]2CC[C@@]2(C)[C@H]1CC[C@]2(C)O [METHYLTESTOSTERONE]	Not Active			IC50 (Glucocorticoid receptor): 1.84 µM; Ki (Glucocorticoid receptor): 0.838 µM
CCCN1C[C@H](CSC)C[C@@H]2c3cccc4[nH]cc(c34)C[C@H]21 [PERGOLIDE]	Not Active	0.2 µM		
C1CCC(C(CC2CCCCN2)C2CCCCC2)CC1 (stereo not given) [PERHEXILINE]		0.941 µM	Not Active	IC50 ([1]; read-out: IC50): 3.59 µM; Ki ([1]; read-out: Ki): 0.501 µM
Cc1ccc(N(CC2=NCCN2)c2cccc(O)c2)cc1 [PHENTOLAMINE]	Not Active	10 µM		
LEAD (II) ACETATE	Not Active		Not Active	Ki ([1]; cho-k1): Not Active; Ki (Androgen receptor [2]): Not Active
LIPOPOLYSACCHARIDE E. COLI O55:B5	Not Active		Not Active	Ki ([1]; cho-k1): Not Active; Ki (Androgen receptor [2]): Not Active
